Measured values reported in ChEMBL document CHEMBL3351412, “Design, synthesis and biological evaluation of β-boswellic acid based HDAC inhibitors as inducers of cancer cell death” (Bioorg Med Chem Lett, 2014).
Blank lines part the entries; values can stand above or below the molecule they belong to.

Assays:
[1] = Cytotoxicity against human HL60 cells; type: functional, cell-based; conditions: HL-60
A549 = test: Cytotoxicity against human A549 cells; type: functional, cell-based
[2] = Cytotoxicity against human HCT116 cells; type: functional, cell-based; conditions: HCT-116
[3] = Cytotoxicity against human MIAPaCa2 cells; type: functional, cell-based; conditions: MIA PaCa-2
MCF7 = test: Cytotoxicity against human MCF7 cells; type: functional, cell-based
[4] = Cytotoxicity against human FR2 cells; type: cell-based
[5] = target: T1, Histone deacetylase (Homo sapiens) (UniProt Q13547+O15379+Q9UBN7+Q92769+Q9UQL6+Q8WUI4+Q9BY41+Q96DB2+P56524+Q9UKV0+Q969S8); test: Inhibition of HDAC (unknown origin) at 50 uM; type: protein assay
[6] = target: T1, Histone deacetylase (Homo sapiens); test: Inhibition of HDAC (unknown origin) at 30 uM; type: protein assay
Histone deacetylase = test: Inhibition of HDAC (unknown origin); type: protein assay, Homo sapiens

Compound: COC(=O)CCCC(=O)N[C@]1(C)[C@@H]2CC[C@]3(C)[C@H](C(=O)C=C4[C@@H]5[C@@H](C)[C@H](C)CC[C@]5(C)CC[C@]43C)[C@@]2(C)CC[C@H]1OC(C)=O
IC50 [1]: 17.6 µM | IC50 (A549): 7.4 µM | IC50 [2]: > 20 µM | IC50 [3]: > 20 µM | IC50 (MCF7): > 20 µM | IC50 [4]: > 20 µM

inhibition [5]: 57% | inhibition [6]: 37% | IC50 (Histone deacetylase): 42 µM
Compound: C[C@H]1[C@H](C)CC[C@]2(C)CC[C@]3(C)C(=CC(=O)[C@@H]4[C@@]5(C)CC[C@@H](O)[C@](C)(NC(=O)CCCCC(=O)NO)[C@@H]5CC[C@]43C)[C@H]12
IC50 [1]: 6.6 µM | IC50 (A549): 3.1 µM | IC50 [2]: > 20 µM | IC50 [3]: 13.1 µM | IC50 (MCF7): > 20 µM | IC50 [4]: 7.2 µM

Compound: COC(=O)CCCCC(=O)N[C@]1(C)[C@@H]2CC[C@]3(C)[C@H](C(=O)C=C4[C@@H]5[C@@H](C)[C@H](C)CC[C@]5(C)CC[C@]43C)[C@@]2(C)CC[C@H]1OC(C)=O
IC50 [1]: > 20 µM | IC50 (A549): 15.1 µM | IC50 [2]: 15.1 µM | IC50 [3]: 15.1 µM | IC50 (MCF7): 15.1 µM | IC50 [4]: > 20 µM

Compound: C[C@H]1[C@H](C)CC[C@]2(C)CC[C@]3(C)C(=CC(=O)[C@@H]4[C@@]5(C)CC[C@@H](O)[C@](C)(NC(=O)CCCCCCCC(=O)O)[C@@H]5CC[C@]43C)[C@H]12
IC50 [1]: 7.5 µM | IC50 (A549): > 20 µM | IC50 [2]: > 20 µM | IC50 [3]: > 20 µM | IC50 (MCF7): 15.1 µM | IC50 [4]: 16.6 µM

Compound: COC(=O)CCCCCCC(=O)N[C@]1(C)[C@@H]2CC[C@]3(C)[C@H](CC=C4[C@@H]5[C@@H](C)[C@H](C)CC[C@]5(C)CC[C@]43C)[C@@]2(C)CC[C@H]1OC(C)=O
IC50 [1]: > 20 µM | IC50 (A549): > 20 µM | IC50 [2]: > 20 µM | IC50 [3]: > 20 µM | IC50 (MCF7): > 20 µM | IC50 [4]: > 20 µM

Compound: C[C@H]1[C@H](C)CC[C@]2(C)CC[C@]3(C)C(=CC(=O)[C@@H]4[C@@]5(C)CC[C@@H](O)[C@](C)(NC(=O)CCCCCCC(=O)O)[C@@H]5CC[C@]43C)[C@H]12
IC50 [1]: > 20 µM | IC50 (A549): 2.9 µM | IC50 [2]: > 20 µM | IC50 [3]: 8.6 µM | IC50 (MCF7): > 20 µM | IC50 [4]: > 20 µM

Compound: C[C@H]1[C@H](C)CC[C@]2(C)CC[C@]3(C)C(=CC(=O)[C@@H]4[C@@]5(C)CC[C@@H](O)[C@](C)(NC(=O)CCCC(=O)O)[C@@H]5CC[C@]43C)[C@H]12
IC50 [1]: > 20 µM | IC50 (A549): 6.6 µM | IC50 [2]: 7.1 µM | IC50 [3]: 6 µM | IC50 (MCF7): 11.1 µM | IC50 [4]: > 20 µM

Compound: COC(=O)CCCCC(=O)N[C@]1(C)[C@@H]2CC[C@]3(C)[C@H](CC=C4[C@@H]5[C@@H](C)[C@H](C)CC[C@]5(C)CC[C@]43C)[C@@]2(C)CC[C@H]1OC(C)=O
IC50 [1]: > 20 µM | IC50 (A549): > 20 µM | IC50 [2]: > 20 µM | IC50 [3]: > 20 µM | IC50 (MCF7): 13.8 µM | IC50 [4]: > 20 µM

Compound: COC(=O)CCCCCCC(=O)N[C@]1(C)[C@@H]2CC[C@]3(C)[C@H](C(=O)C=C4[C@@H]5[C@@H](C)[C@H](C)CC[C@]5(C)CC[C@]43C)[C@@]2(C)CC[C@H]1OC(C)=O
IC50 [1]: > 20 µM | IC50 (A549): 2 µM | IC50 [2]: 15.7 µM | IC50 [3]: 8 µM | IC50 (MCF7): < 0.25 µM | IC50 [4]: > 20 µM

Compound: CC(=O)O[C@@H]1CC[C@]2(C)[C@H]3C(=O)C=C4[C@@H]5[C@@H](C)[C@H](C)CC[C@]5(C)CC[C@@]4(C)[C@]3(C)CC[C@H]2[C@@]1(C)N
IC50 [1]: 6.1 µM | IC50 (A549): 6 µM | IC50 [2]: 15.3 µM | IC50 [3]: 15.1 µM | IC50 (MCF7): 14 µM | IC50 [4]: 7.1 µM

Compound: C[C@H]1[C@H](C)CC[C@]2(C)CC[C@]3(C)C(=CC[C@@H]4[C@@]5(C)CC[C@@H](O)[C@](C)(NC(=O)CCCCCCCC(=O)O)[C@@H]5CC[C@]43C)[C@H]12
IC50 [1]: > 20 µM | IC50 (A549): > 20 µM | IC50 [2]: > 20 µM | IC50 [3]: 15.9 µM | IC50 (MCF7): 16.5 µM | IC50 [4]: > 20 µM

Compound: C[C@H]1[C@H](C)CC[C@]2(C)CC[C@]3(C)C(=CC[C@@H]4[C@@]5(C)CC[C@@H](O)[C@](C)(NC(=O)CCCCCCC(=O)O)[C@@H]5CC[C@]43C)[C@H]12
IC50 [1]: > 20 µM | IC50 (A549): > 20 µM | IC50 [2]: > 20 µM | IC50 [3]: > 20 µM | IC50 (MCF7): > 20 µM | IC50 [4]: > 20 µM

Compound: C[C@H]1[C@H](C)CC[C@]2(C)CC[C@]3(C)C(=CC[C@@H]4[C@@]5(C)CC[C@@H](O)[C@](C)(NC(=O)CCCC(=O)O)[C@@H]5CC[C@]43C)[C@H]12
IC50 [1]: 13.4 µM | IC50 (A549): > 20 µM | IC50 [2]: > 20 µM | IC50 [3]: 11 µM | IC50 (MCF7): 14.3 µM | IC50 [4]: > 20 µM

Compound: COC(=O)CCCC(=O)N[C@@]1(C)[C@H](OC(C)=O)CC[C@]2(C)C3CC=C4[C@@H]5[C@@H](C)[C@H](C)CC[C@]5(C)CC[C@@]4(C)[C@]3(C)CC[C@@H]12 (single isomer, unassigned)
IC50 [1]: 17.1 µM | IC50 (A549): > 20 µM | IC50 [2]: 19 µM | IC50 [3]: 11.4 µM | IC50 (MCF7): 8.7 µM | IC50 [4]: > 20 µM

Compound: C[C@H]1[C@H](C)CC[C@]2(C)CC[C@]3(C)C(=CC[C@@H]4[C@@]5(C)CC[C@@H](O)[C@](C)(NC(=O)CCCCC(=O)NO)[C@@H]5CC[C@]43C)[C@H]12
IC50 [1]: > 20 µM | IC50 (A549): > 20 µM | IC50 [2]: > 20 µM | IC50 [3]: 11.8 µM | IC50 (MCF7): 4.4 µM | IC50 [4]: > 20 µM

Compound: COC(=O)CCCCCCCC(=O)N[C@]1(C)[C@@H]2CC[C@]3(C)[C@H](C(=O)C=C4[C@@H]5[C@@H](C)[C@H](C)CC[C@]5(C)CC[C@]43C)[C@@]2(C)CC[C@H]1OC(C)=O
IC50 [1]: 10 µM | IC50 (A549): 10 µM | IC50 [2]: 18 µM | IC50 [3]: 6.1 µM | IC50 (MCF7): 2 µM | IC50 [4]: 17.2 µM

Compound: C[C@H]1[C@H](C)CC[C@]2(C)CC[C@]3(C)C(=CC(=O)[C@@H]4[C@@]5(C)CC[C@@H](O)[C@](C)(NC(=O)CCCCC(=O)O)[C@@H]5CC[C@]43C)[C@H]12
IC50 [1]: > 20 µM | IC50 (A549): 19.1 µM | IC50 [2]: > 20 µM | IC50 [3]: 14.1 µM | IC50 (MCF7): 18 µM | IC50 [4]: > 20 µM

Compound: CC(=O)O[C@@H]1CC[C@]2(C)[C@H]3CC=C4[C@@H]5[C@@H](C)[C@H](C)CC[C@]5(C)CC[C@@]4(C)[C@]3(C)CC[C@H]2[C@@]1(C)N
IC50 [1]: 10 µM | IC50 (A549): 13.2 µM | IC50 [2]: 8.7 µM | IC50 [3]: 7.2 µM | IC50 (MCF7): 6.9 µM | IC50 [4]: 13.9 µM

Compound: C[C@H]1[C@H](C)CC[C@]2(C)CC[C@]3(C)C(=CC[C@@H]4[C@@]5(C)CC[C@@H](O)[C@](C)(NC(=O)CCCCC(=O)O)[C@@H]5CC[C@]43C)[C@H]12
IC50 [1]: > 20 µM | IC50 (A549): > 20 µM | IC50 [2]: > 20 µM | IC50 [3]: > 20 µM | IC50 (MCF7): > 20 µM | IC50 [4]: > 20 µM

Compound: COC(=O)CCCCCCCC(=O)N[C@]1(C)[C@@H]2CC[C@]3(C)[C@H](CC=C4[C@@H]5[C@@H](C)[C@H](C)CC[C@]5(C)CC[C@]43C)[C@@]2(C)CC[C@H]1OC(C)=O
IC50 [1]: > 20 µM | IC50 (A549): > 20 µM | IC50 [2]: > 20 µM | IC50 [3]: > 20 µM | IC50 (MCF7): 17 µM | IC50 [4]: > 20 µM
